# Measurements: patent US20150252047A1, “SUBSTITUTED INDAZOL-PYRROLOPYRIMIDINES USEFUL IN THE TREATMENT OF HYPERPROLIFERATIVE DISEASES” (BAYER PHARMA AKTIENGESELLSCHAFT, priority 2012, published 2015)
# Target: T1, human full-length MKNK1 (Homo sapiens, UniProt Q9BUB5, T385D)
# T1 construct: GST (N); purchased Carna Biosciences 02-145; host or cells: insect cells (baculovirus expression system)
# Test: MKNK1 kinase high ATP assay (TR-FRET)
# Assay type: biochemical
# Conditions: high ATP (2 mM final), 15 min preincubation with enzyme, 30 min reaction at 22° C.
# Description: MKNK1-inhibitory activity at high ATP of compounds of the present invention after their preincubation with MKNK1 was quantified employing the TR-FRET-based MKNK1 high ATP assay as described in the following paragraphs.
# A recombinant fusion protein of Glutathione-S-Transferase (GST, N-terminally) and human full-length MKNK1 (amino acids 1-424 and T344D of accession number BAA 19885.1), expressed in insect cells using baculovirus expression system and purified via glutathione sepharose affinity chromatography, was purchased from Carna Biosciences (product no 02-145) and used as enzyme. As substrate for the kinase reaction the biotinylated peptide biotin-Ahx-IKKRKLTRRKSLKG (C-terminus in amide form) was used, which can be purchased e.g. from the company Biosyntan (Berlin-Buch, Germany).
# For the assay 50 nL of a 100 fold concentrated solution of the test compound in DMSO was pipetted into a black low volume 384 well microtiter plate (Greiner Bio-One, Frickenhausen, Germany), 2 μL of a solution of MKNK1 in aqueous assay buffer [50 mM HEPES pH 7.5, 5 mM MgCl2, 1.0 mM dithiothreitol, 0.005% (v/v) Nonidet-P40 (Sigma)] was added and the mixture was incubated for 15 min at 22° C. to allow pre-binding of the test compounds to the enzyme before the start of the kinase reaction. Then the kinase reaction was started by the addition of 3 μL of a solution of adenosine-tri-phosphate (ATP, 3.3 mM=>final conc. in the 5 μL assay volume is 2 mM) and substrate (0.1 μM=>final conc. in the 5 μL assay volume is 0.06 μM) in assay buffer and the resulting mixture was incubated for a reaction time of 30 min at 22° C. The concentration of MKNK1 was adjusted depending of the activity of the enzyme lot and was chosen appropriate to have the assay in the linear range, typical concentrations were in the range of 0.003 μg/mL. The reaction was stopped by the addition of 5 μL of a solution of TR-FRET detection reagents (5 nM streptavidine-XL665 [Cisbio Bioassays, Codolet, France] and 1 nM anti-ribosomal protein S6 (pSer236)-antibody from Invitrogen [#44921G] and 1 nM LANCE EU-W1024 Labeled ProteinG [Perkin-Elmer, product no. AD0071]) in an aqueous EDTA-solution (100 mM EDTA, 0.1% (w/v) bovine serum albumin in 50 mM HEPES pH 7.5).
# The resulting mixture was incubated for 1 h at 22° C. to allow the formation of complex between the phosphorylated biotinylated peptide and the detection reagents. Subsequently the amount of phosphorylated substrate was evaluated by measurement of the resonance energy transfer from the Eu-chelate to the streptavidine-XL. Therefore, the fluorescence emissions at 620 nm and 665 nm after excitation at 350 nm were measured in a TR-FRET reader, e.g. a Rubystar (BMG Labtechnologies, Offenburg, Germany) or a Viewlux (Perkin-Elmer). The ratio of the emissions at 665 nm and at […] was taken as the measure for the amount of phosphorylated substrate. The data were normalised (enzyme reaction without inhibitor=0% inhibition, all other assay components but no enzyme=100% inhibition).
# T1 sequence (Q9BUB5 1-424 isoform Q9BUB5-2 T344D): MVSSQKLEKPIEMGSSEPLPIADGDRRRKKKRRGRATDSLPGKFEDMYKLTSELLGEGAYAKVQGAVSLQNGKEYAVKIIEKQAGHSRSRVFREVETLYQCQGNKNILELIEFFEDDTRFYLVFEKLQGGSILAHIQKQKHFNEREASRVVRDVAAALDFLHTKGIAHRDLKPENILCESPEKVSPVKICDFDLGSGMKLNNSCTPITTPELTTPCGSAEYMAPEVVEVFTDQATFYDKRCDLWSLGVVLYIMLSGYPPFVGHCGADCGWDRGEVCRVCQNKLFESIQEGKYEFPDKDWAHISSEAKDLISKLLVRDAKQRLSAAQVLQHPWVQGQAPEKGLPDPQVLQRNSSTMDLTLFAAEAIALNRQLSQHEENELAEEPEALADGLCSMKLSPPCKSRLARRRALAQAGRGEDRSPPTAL
row,Compound,IC50 [nM]
1,"CC(C)Oc1cc2[nH]ncc2cc1Nc1ncnc2[nH]cc(C#N)c12 [Example 34, 4-[(6-Isopropoxy-1H-indazol-5-yl)amino]-7H-pyrrolo[2,3-d]pyrimidine-5-carbonitrile]",2
2,"CC(C)Oc1cc2[nH]ncc2cc1Nc1ncnc2[nH]c(Br)cc12 [Example 36, 6-Bromo-N-[6-(propan-2-yloxy)-1H-indazol-5-yl]-7H-pyrrolo[2,3-d]pyrimidin-4-amine]",34
3,"COc1cc2[nH]ncc2cc1Nc1ncnc2[nH]c(C)cc12 [Example 37, N-(6-Methoxy-1H-indazol-5-yl)-6-methyl-7H-pyrrolo[2,3-d]pyrimidin-4-amine]",23
4,"CC(C)Oc1cc2[nH]ncc2cc1Nc1ncnc2[nH]c(Cl)cc12 [Example 40, 6-Chloro-N-[6-(propan-2-yloxy)-1H-indazol-5-yl]-7H-pyrrolo[2,3-d]pyrimidin-4-amine]",29
5,"COc1cc2[nH]ncc2cc1Nc1ncnc2[nH]c(Cl)cc12 [Example 41, 6-Chloro-N-(6-methoxy-1H-indazol-5-yl)-7H-pyrrolo[2,3-d]pyrimidin-4-amine]",21
6,"CCOC(=O)c1cc2c(Nc3cc4cn[nH]c4cc3OC)ncnc2[nH]1 [Example 42, Ethyl 4-[(6-methoxy-1H-indazol-5-yl)amino]-7H-pyrrolo[2,3-d]pyrimidine-6-carboxylate]",3
7,"N#Cc1n[nH]c2ccc(Nc3ncnc4[nH]ccc34)cc12 [Example 43, 5-(7H-Pyrrolo[2,3-d]pyrimidin-4-ylamino)-1H-indazole-3-carbonitrile]",1340
8,"CCOc1cc2[nH]ncc2cc1Nc1ncnc2[nH]c(CC)c(C)c12 [Example 44, N-(6-Ethoxy-1H-indazol-5-yl)-6-ethyl-5-methyl-7H-pyrrolo[2,3-d]pyrimidin-4-amine]",3
9,"CCCc1[nH]c2ncnc(Nc3cc4cn[nH]c4cc3OC(C)C)c2c1CC [Example 45, 5-Ethyl-N-[6-(propan-2-yloxy)-1H-indazol-5-yl]-6-propyl-7H-pyrrolo[2,3-d]pyrimidin-4-amine]",21
10,"CCCc1[nH]c2ncnc(Nc3cc4cn[nH]c4cc3OC)c2c1CC [Example 46, 5-Ethyl-N-(6-methoxy-1H-indazol-5-yl)-6-propyl-7H-pyrrolo[2,3-d]pyrimidin-4-amine]",2
11,"COc1cc2[nH]ncc2cc1Nc1ncnc2[nH]cc(C(F)(F)F)c12 [Example 49, N-(6-Methoxy-1H-indazol-5-yl)-5-(trifluoromethyl)-7H-pyrrolo[2,3-d]pyrimidin-4-amine]",16
12,"CC(C)Oc1cc2[nH]ncc2cc1Nc1ncnc2[nH]c(S(=O)(=O)c3ccccc3)cc12 [Example 52, 6-(Phenylsulfonyl)-N-[6-(propan-2-yloxy)-1H-indazol-5-yl]-7H-pyrrolo[2,3-d]pyrimidin-4-amine]",2
13,"Cc1ccc(S(=O)(=O)c2cc3c(Nc4cc5cn[nH]c5cc4OC(C)C)ncnc3[nH]2)cc1 [Example 53, 6-[(4-Methylphenyl)sulfonyl]-N-[6-(propan-2-yloxy)-1H-indazol-5-yl]-7H-pyrrolo[2,3-d]pyrimidin-4-amine]",2
14,"CC(C)Oc1cc2[nH]ncc2cc1Nc1ncnc2[nH]c(S(C)(=O)=O)cc12 [Example 54, 6-(Methylsulfonyl)-N-[6-(propan-2-yloxy)-1H-indazol-5-yl]-7H-pyrrolo[2,3-d]pyrimidin-4-amine]",37
15,"Fc1cc2[nH]ncc2cc1Nc1ncnc2[nH]c(Br)cc12 [Example 55, 6-Bromo-N-(6-fluoro-1H-indazol-5-yl)-7H-pyrrolo[2,3-d]pyrimidin-4-amine]",98
16,"COc1cc2[nH]ncc2cc1Nc1ncnc2[nH]c(C(=O)N3CCOCC3)c(Br)c12 [Example 58, {5-Bromo-4-[(6-methoxy-1H-indazol-5-yl)amino]-7H-pyrrolo[2,3-d]pyrimidin-6-yl}(morpholin-4-yl)methanone]",2
17,"COc1cc2[nH]ncc2cc1Nc1ncnc2[nH]c(C(=O)N3CCCCC3)c(Br)c12 [Example 60, {5-Bromo-4-[(6-methoxy-1H-indazol-5-yl)amino]-7H-pyrrolo[2,3-d]pyrimidin-6-yl}(piperidin-1-yl)methanone]",2
18,"COc1cc2[nH]ncc2cc1Nc1ncnc2[nH]c(C(=O)N3CCCC3)c(Br)c12 [Example 61, {5-Bromo-4-[(6-methoxy-1H-indazol-5-yl)amino]-7H-pyrrolo[2,3-d]pyrimidin-6-yl}(pyrrolidin-1-yl)methanone]",1
19,"COc1cc2[nH]ncc2cc1Nc1ncnc2[nH]c(C(=O)N(C)CCN(C)Cc3ccccc3)c(Br)c12 [Example 62, N-{2-[Benzyl(methyl)amino]ethyl}-5-bromo-4-[(6-methoxy-1H-indazol-5-yl)amino]-N-methyl-7H-pyrrolo[2,3-d]pyrimidine-6-carboxamide]",4
20,"CCOC(=O)c1[nH]c2ncnc(Nc3cc4cn[nH]c4cc3OC(C)C)c2c1Br [Example 63, Ethyl 5-bromo-4-{[6-(propan-2-yloxy)-1H-indazol-5-yl]amino}-7H-pyrrolo[2,3-d]pyrimidine-6-carboxylate]",1
21,"COc1cc2[nH]ncc2cc1Nc1ncnc2[nH]c(C(=O)N3C[C@@H]4C[C@H]3CO4)c(Br)c12 [Example 64, {5-Bromo-4-[(6-methoxy-1H-indazol-5-yl)amino]-7H-pyrrolo[2,3-d]pyrimidin-6-yl}[(1S,4S)-2-oxa-5-azabicyclo[2.2.1]hept-5-yl]methanone]",1

# Now from value to compound:
row,IC50 [nM],Compound
1,1,"COc1cc2[nH]ncc2cc1Nc1ncnc2[nH]cc(C#N)c12 [Example 35, 4-[(6-Methoxy-1H-indazol-5-yl)amino]-7H-pyrrolo[2,3-d]pyrimidine-5-carbonitrile]"
2,1,"Cc1c[nH]c2ncnc(Nc3cc4cn[nH]c4cc3OC(C)C)c12 [Example 38, 5-Methyl-N-[6-(propan-2-yloxy)-1H-indazol-5-yl]-7H-pyrrolo[2,3-d]pyrimidin-4-amine]"
3,1,"COc1cc2[nH]ncc2cc1Nc1ncnc2[nH]cc(C)c12 [Example 39, N-(6-Methoxy-1H-indazol-5-yl)-5-methyl-7H-pyrrolo[2,3-d]pyrimidin-4-amine]"
4,< 1,"CCOC(=O)c1[nH]c2ncnc(Nc3cc4cn[nH]c4cc3OC)c2c1Br [Example 47, Ethyl 5-bromo-4-[(6-methoxy-1H-indazol-5-yl)amino]-7H-pyrrolo[2,3-d]pyrimidine-6-carboxylate]"
5,< 1,"COc1cc2[nH]ncc2cc1Nc1ncnc2[nH]c(C(=O)O)c(Br)c12 [Example 48, 5-Bromo-4-[(6-methoxy-1H-indazol-5-yl)amino]-7H-pyrrolo[2,3-d]pyrimidine-6-carboxylic acid]"
6,< 1,"COc1cc2[nH]ncc2cc1Nc1ncnc2[nH]c(S(=O)(=O)c3ccccc3)cc12 [Example 50, N-(6-Methoxy-1H-indazol-5-yl)-6-(phenylsulfonyl)-7H-pyrrolo[2,3-d]pyrimidin-4-amine]"
7,1,"COc1cc2[nH]ncc2cc1Nc1ncnc2[nH]c(S(=O)(=O)c3ccc(C)cc3)cc12 [Example 51, N-(6-Methoxy-1H-indazol-5-yl)-6-[(4-methylphenyl)sulfonyl]-7H-pyrrolo[2,3-d]pyrimidin-4-amine]"
8,1,"COc1cc2[nH]ncc2cc1Nc1ncnc2[nH]c(CC(C)C)c(C(C)C)c12 [Example 56, N-(6-Methoxy-1H-indazol-5-yl)-6-(2-methylpropyl)-5-(propan-2-yl)-7H-pyrrolo[2,3-d]pyrimidin-4-amine]"
9,1,"CCc1c[nH]c2ncnc(Nc3cc4cn[nH]c4cc3OC)c12 [Example 57, 5-Ethyl-N-(6-methoxy-1H-indazol-5-yl)-7H-pyrrolo[2,3-d]pyrimidin-4-amine]"
10,1,"COc1cc2[nH]ncc2cc1Nc1ncnc2[nH]c(C(=O)N(C)C)c(Br)c12 [Example 59, 5-Bromo-4-[(6-methoxy-1H-indazol-5-yl)amino]-N,N-dimethyl-7H-pyrrolo[2,3-d]pyrimidine-6-carboxamide]"
